Data reported in ChEMBL document CHEMBL4507291 (2021).

Key:
[1] = target: Ephrin type-A receptor 5 (Homo sapiens) (UniProt P54756)
[2] = target: D(3) dopamine receptor (Homo sapiens) (UniProt P35462); conditions: Compound concentration 10.0 uM
[3] = target: Cyclin-dependent kinase 4 (Homo sapiens) (UniProt P11802)
[4] = target: T1, Protein kinase C iota type (Homo sapiens) (UniProt P41743)
T1 sequence (whole entry): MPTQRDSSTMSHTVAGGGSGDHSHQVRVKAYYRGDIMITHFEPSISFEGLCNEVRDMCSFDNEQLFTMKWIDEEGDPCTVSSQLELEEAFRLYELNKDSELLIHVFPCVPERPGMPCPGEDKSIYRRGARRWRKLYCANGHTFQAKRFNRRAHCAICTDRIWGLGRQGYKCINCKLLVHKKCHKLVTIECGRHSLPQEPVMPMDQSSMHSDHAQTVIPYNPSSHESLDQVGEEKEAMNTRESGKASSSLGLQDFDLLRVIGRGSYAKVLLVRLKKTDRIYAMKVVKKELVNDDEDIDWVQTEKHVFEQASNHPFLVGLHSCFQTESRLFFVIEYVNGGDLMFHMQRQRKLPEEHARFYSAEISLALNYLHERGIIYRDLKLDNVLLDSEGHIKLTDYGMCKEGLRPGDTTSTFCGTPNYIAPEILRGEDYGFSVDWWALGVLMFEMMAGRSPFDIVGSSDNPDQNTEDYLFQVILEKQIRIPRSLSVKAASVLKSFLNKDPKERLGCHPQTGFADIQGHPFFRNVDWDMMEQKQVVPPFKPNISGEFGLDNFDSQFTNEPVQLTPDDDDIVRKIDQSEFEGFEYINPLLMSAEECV

[5] = target: Interferon-induced, double-stranded RNA-activated protein kinase (Homo sapiens) (UniProt P19525)
Chain of Interferon-induced, double-stranded RNA-activated protein kinase (Homo sapiens) (P19525 whole entry): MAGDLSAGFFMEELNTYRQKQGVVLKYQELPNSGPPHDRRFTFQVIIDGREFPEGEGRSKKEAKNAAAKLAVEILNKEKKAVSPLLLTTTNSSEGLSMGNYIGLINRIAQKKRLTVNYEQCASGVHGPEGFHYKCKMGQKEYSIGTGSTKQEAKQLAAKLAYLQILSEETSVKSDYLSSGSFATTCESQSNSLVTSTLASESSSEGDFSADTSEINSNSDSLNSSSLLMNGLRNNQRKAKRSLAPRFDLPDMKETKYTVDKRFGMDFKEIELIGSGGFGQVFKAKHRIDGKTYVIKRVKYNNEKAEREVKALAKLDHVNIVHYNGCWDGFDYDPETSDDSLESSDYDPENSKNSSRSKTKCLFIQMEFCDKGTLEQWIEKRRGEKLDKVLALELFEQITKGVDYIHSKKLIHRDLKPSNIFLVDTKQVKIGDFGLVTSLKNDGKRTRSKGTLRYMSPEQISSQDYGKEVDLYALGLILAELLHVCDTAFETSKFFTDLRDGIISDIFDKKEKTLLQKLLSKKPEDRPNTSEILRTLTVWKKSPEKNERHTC

[6] = target: T2, Serine/threonine-protein kinase D3 (Homo sapiens) (UniProt O94806)
T2 sequence (whole entry): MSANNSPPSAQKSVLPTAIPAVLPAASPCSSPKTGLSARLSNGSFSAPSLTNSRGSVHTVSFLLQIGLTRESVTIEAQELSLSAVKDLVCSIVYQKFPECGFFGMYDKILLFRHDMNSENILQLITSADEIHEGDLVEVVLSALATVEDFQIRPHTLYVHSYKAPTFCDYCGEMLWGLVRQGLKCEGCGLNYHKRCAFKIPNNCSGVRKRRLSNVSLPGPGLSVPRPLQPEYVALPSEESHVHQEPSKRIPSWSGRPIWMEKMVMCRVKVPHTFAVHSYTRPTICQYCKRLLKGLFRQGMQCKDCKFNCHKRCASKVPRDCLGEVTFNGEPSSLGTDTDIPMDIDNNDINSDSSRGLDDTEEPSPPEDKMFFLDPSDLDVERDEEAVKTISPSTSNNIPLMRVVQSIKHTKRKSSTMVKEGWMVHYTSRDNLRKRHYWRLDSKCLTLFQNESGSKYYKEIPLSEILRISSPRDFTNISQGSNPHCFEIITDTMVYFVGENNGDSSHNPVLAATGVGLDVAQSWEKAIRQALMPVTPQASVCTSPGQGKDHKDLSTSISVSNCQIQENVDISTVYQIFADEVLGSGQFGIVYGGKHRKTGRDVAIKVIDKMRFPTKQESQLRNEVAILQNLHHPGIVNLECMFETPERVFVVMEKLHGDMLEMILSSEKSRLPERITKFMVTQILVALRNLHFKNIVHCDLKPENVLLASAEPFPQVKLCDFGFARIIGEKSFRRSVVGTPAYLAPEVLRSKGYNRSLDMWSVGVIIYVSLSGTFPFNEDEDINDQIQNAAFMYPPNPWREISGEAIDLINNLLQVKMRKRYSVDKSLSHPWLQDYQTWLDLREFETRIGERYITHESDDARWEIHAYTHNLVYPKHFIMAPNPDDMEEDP

[7] = target: RAF proto-oncogene serine/threonine-protein kinase (Homo sapiens) (UniProt P04049)
Chain of RAF proto-oncogene serine/threonine-protein kinase (Homo sapiens) (P04049 whole entry): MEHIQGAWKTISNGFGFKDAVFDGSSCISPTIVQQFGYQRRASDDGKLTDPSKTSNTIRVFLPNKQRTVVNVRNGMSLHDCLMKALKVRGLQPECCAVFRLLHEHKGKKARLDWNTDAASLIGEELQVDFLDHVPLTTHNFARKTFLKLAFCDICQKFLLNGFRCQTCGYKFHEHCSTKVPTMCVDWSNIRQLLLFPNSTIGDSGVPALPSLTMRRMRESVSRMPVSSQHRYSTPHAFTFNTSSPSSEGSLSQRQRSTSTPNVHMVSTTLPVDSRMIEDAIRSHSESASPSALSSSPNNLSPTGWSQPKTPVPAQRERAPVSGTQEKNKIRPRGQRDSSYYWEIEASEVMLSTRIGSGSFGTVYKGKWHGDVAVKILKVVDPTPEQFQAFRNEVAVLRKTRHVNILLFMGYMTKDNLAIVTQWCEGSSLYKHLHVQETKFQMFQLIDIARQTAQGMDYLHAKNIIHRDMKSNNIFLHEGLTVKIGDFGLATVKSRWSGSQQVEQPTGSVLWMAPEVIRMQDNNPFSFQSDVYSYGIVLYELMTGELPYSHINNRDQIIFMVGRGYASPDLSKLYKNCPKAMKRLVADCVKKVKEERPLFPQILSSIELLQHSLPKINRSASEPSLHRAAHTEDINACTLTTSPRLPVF

[8] = target: Dual specificity testis-specific protein kinase 1 (Homo sapiens) (UniProt Q15569)
[9] = target: T3, Mitogen-activated protein kinase kinase kinase 7 (Homo sapiens) (UniProt O43318)
T3 sequence (whole entry): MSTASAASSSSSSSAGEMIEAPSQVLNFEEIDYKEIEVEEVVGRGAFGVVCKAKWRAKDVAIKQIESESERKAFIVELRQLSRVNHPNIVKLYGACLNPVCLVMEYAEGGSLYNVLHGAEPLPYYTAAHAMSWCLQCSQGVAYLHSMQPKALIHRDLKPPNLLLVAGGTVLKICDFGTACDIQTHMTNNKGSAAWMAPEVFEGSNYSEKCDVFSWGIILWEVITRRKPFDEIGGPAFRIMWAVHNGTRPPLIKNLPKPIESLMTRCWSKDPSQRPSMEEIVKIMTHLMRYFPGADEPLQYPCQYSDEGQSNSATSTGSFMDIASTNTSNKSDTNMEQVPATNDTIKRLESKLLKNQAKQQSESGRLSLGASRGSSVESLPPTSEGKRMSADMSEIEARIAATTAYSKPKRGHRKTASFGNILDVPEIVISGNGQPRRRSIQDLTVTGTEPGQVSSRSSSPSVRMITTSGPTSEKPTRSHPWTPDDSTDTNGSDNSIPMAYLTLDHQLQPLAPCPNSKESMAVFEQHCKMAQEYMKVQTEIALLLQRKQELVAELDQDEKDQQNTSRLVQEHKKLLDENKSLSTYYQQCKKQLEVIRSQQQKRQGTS

[10] = target: T4, Dual specificity mitogen-activated protein kinase kinase 3 (Homo sapiens) (UniProt P46734)
T4 sequence (whole entry): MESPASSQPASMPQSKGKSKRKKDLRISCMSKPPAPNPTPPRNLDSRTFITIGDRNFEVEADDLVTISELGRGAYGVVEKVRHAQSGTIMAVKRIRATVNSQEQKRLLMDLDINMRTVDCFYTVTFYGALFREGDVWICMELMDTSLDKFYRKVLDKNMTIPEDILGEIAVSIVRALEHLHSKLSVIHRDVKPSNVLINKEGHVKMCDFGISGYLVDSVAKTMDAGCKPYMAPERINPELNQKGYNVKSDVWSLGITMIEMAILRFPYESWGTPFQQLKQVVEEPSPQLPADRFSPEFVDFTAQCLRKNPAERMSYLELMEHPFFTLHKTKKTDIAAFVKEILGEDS

[11] = target: Serine/threonine-protein kinase haspin (Homo sapiens) (UniProt Q8TF76)
Chain of Serine/threonine-protein kinase haspin (Homo sapiens) (Q8TF76 whole entry): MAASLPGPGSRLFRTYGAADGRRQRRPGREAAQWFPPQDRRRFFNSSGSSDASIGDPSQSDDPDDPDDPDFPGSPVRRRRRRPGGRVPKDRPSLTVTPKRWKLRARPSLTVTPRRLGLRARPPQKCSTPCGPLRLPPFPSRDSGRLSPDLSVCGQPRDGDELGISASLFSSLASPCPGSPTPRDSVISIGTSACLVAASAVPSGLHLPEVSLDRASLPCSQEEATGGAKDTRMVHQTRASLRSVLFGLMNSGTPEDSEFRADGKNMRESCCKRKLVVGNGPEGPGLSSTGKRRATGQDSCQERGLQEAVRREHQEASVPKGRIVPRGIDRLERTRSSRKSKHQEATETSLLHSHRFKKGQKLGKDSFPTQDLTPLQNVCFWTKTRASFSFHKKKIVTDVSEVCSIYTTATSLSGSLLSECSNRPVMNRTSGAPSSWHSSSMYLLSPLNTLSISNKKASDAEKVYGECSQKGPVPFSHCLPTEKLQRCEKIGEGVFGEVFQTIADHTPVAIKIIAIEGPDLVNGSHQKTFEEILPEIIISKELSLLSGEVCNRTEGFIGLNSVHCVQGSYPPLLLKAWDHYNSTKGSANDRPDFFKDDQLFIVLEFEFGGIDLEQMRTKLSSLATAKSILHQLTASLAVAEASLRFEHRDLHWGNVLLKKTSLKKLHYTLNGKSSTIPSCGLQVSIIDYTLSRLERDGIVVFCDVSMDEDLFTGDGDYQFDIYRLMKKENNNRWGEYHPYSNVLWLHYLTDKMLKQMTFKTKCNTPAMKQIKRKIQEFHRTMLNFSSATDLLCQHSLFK

[12] = target: Tyrosine-protein kinase receptor UFO (Homo sapiens) (UniProt P30530)
Chain of Tyrosine-protein kinase receptor UFO (Homo sapiens) (P30530 whole entry): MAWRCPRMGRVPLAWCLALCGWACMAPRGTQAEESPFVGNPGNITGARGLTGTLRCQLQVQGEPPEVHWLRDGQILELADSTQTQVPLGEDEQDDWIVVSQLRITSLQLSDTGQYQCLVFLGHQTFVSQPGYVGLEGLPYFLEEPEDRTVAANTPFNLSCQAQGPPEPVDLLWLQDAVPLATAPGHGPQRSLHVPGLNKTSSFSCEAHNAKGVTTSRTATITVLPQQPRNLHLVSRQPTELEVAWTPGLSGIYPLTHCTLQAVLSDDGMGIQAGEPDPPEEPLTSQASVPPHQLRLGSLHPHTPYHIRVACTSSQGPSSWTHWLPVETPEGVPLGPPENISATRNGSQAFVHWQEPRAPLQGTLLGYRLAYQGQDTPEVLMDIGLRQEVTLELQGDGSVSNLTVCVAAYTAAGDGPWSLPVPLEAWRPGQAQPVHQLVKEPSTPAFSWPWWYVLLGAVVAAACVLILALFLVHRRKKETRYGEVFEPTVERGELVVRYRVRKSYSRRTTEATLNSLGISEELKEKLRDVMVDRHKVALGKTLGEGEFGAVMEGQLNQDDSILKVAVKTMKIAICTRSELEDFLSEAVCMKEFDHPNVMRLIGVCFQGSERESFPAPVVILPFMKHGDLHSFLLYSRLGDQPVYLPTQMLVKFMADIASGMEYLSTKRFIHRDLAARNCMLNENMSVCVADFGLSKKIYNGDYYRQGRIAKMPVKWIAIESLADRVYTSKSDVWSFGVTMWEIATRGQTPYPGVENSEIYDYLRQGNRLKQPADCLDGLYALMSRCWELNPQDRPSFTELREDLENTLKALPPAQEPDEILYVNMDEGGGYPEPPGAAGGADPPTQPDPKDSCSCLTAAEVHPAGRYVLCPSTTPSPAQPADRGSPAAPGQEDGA

[13] = Compound concentration 100.0 nM
[14] = Compound concentration 1000.0 nM

Chain of Ephrin type-A receptor 5 (Homo sapiens) (P54756 whole entry): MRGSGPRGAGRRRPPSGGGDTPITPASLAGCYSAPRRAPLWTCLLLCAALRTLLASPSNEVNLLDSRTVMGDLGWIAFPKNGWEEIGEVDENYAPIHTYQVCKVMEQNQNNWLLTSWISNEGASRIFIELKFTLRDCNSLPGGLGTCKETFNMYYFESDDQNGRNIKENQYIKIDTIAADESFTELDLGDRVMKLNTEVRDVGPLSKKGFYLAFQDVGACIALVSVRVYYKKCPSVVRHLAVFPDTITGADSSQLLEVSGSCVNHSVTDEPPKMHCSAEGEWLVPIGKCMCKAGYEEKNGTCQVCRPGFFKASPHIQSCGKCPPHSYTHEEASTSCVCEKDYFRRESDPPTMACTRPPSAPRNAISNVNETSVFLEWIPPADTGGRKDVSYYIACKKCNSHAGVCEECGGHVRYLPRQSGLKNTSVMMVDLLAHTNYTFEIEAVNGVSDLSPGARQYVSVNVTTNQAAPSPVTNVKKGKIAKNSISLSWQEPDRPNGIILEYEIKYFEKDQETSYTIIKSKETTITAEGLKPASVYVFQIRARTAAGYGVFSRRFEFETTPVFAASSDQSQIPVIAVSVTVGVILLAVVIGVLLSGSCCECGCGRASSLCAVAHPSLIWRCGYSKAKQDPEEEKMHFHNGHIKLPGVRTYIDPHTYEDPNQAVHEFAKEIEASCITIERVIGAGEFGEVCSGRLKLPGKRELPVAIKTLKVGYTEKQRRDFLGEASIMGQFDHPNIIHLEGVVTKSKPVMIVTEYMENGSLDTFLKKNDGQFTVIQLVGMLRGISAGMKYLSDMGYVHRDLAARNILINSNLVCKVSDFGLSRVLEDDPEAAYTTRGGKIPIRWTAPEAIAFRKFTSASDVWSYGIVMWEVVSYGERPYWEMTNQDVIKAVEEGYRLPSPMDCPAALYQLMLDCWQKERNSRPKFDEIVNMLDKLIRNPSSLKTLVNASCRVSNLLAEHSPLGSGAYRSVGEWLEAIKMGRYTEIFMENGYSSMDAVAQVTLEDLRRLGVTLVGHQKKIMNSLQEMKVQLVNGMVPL
Chain of Cyclin-dependent kinase 4 (Homo sapiens) (P11802 whole entry): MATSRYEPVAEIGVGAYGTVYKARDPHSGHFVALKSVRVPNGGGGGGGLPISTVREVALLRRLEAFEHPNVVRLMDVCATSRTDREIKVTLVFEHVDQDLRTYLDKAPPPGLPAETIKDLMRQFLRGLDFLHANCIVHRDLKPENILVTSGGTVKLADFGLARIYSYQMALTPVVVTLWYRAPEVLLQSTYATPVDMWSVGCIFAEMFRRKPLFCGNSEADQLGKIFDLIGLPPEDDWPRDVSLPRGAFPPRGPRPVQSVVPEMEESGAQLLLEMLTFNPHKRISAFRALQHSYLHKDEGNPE
Chain of D(3) dopamine receptor (Homo sapiens) (P35462 whole entry): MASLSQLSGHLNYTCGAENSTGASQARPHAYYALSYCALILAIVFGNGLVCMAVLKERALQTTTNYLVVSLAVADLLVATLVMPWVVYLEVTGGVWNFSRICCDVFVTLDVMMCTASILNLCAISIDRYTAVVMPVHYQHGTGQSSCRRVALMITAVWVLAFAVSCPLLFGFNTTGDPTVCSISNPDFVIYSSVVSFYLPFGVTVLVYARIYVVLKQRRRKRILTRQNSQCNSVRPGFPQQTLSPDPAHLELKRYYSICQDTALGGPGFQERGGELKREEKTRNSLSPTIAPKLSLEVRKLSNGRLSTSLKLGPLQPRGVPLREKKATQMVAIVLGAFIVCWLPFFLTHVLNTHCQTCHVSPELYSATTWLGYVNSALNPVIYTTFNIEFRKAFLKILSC

C[C@@H]1CN(c2cc(-c3n[nH]c4ccc(OC5(C)CC5)cc34)ncn2)C[C@H](C)O1 [MLi-2]
inactive: residual activity [1, 13] 95% | inhibition [2] -0.66% | residual activity [3, 13] 71% | residual activity [4, 13] 80% | residual activity [5, 13] 100% | residual activity [6, 13] 82% | residual activity [7, 13] 100% | residual activity [8, 13] 75% | residual activity [9, 13] 70% | residual activity [10, 13] 71% | residual activity [11, 13] 74% | residual activity [12, 13] 100%

C[C@@H]1CN(c2cc(-c3nn(C)c4ccc(OC5(C)CC5)cc34)ncn2)C[C@H](C)O1 [MLi-2-NC]
inactive: residual activity [1, 14] 100% | inhibition [2] 2.71% | residual activity [3, 14] 91% | residual activity [4, 14] 100% | residual activity [5, 14] 100% | residual activity [6, 14] 64% | residual activity [7, 14] 100% | residual activity [8, 14] 100% | residual activity [9, 14] 89% | residual activity [10, 14] 70% | residual activity [11, 14] 99% | residual activity [12, 14] 100%
